± gives the standard deviation of the averaged measurements.
Columns and labels:
[1] = tested on: UT-SCC-42A; experiment: relative IC50 (midpoint of the fitted curve; maximal inhibition may be below 50%); higher = less potent; settings: culture condition: embedded in Matrigel; treatment time: 3 days
In short: (§1)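 Viability was read with CellTiter-Glo 2.0 luminescence and scaled against vehicle (0.1% DMSO) and cell-killing control wells. The assay used HPV-negative HNSCC cell lines at 500 cells/well in 384-well plates, grown on plastic, on Matrigel or Myogel coatings (500 µg/mL), or embedded in Matrigel or Myogel plus rat collagen I, and treated for 3 days at five 10-fold concentrations. IC50, maximal inhibition and drug sensitivity score were derived from percent-inhibition dose–response curves fitted in the FIMM pipeline.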

[2] = tested on: UT-SCC-44; experiment: as above; settings: treatment time: 3 days
In short: as §1

[3] = tested on: UT-SCC-73; experiment: as above; settings: culture condition: embedded in Matrigel; treatment time: 3 days
In short: as §1

[4] = tested on: UT-SCC-14; experiment: as above; settings: treatment time: 3 days
In short: as §1

[5] = tested on: UT-SCC-106A; experiment: as above; settings: treatment time: 3 days
In short: as §1

[6] = tested on: UT-SCC-24A; experiment: maximal % inhibition of viability relative to DMSO; higher = stronger effect; settings: treatment time: 3 days
Description: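 HNSCC cell lines (500 cells/well, 384-well) were cultured on plastic, on top of (2D) or embedded (3D) in Matrigel or human leiomyoma matrix Myogel (500 ug/mL; Myogel 3D mixed with rat collagen I). Cells were treated for 3 days with 5 ten-fold concentrations of each drug, and viability was read by CellTiter-Glo. Viability was normalised to DMSO (0% inhibition) and 100 uM benzethonium chloride (100% inhibition) controls and fitted with the FIMM DSRT pipeline to give IC50 (nM), maximal % inhibition and the drug sensitivity score (DSS). Suffixes _1/_2/_3 on drug names are replicates.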

[7] = tested on: UT-SCC-28; experiment: drug sensitivity score (DSS); higher = more sensitive; extreme values may be limits of the assay; settings: treatment time: 3 days
In short: as §1

[8] = tested on: UT-SCC-8; experiment: as above; settings: treatment time: 3 days
In short: as §1

[9] = tested on: UT-SCC-42A; experiment: as above; settings: treatment time: 3 days
In short: as §1

[10] = tested on: UT-SCC-44; experiment: as above; settings: treatment time: 3 days
In short: as §1

[11] = tested on: UT-SCC-73; experiment: as above; settings: treatment time: 3 days
In short: as §1

[12] = tested on: UT-SCC-42B; experiment: as above; settings: treatment time: 3 days
In short: as §1

[13] = tested on: UT-SCC-24B; experiment: as above; settings: treatment time: 3 days
In short: as §1

[14] = tested on: UT-SCC-40; experiment: as above; settings: treatment time: 3 days
In short: as §1

[15] = tested on: UT-SCC-14; experiment: as above; settings: treatment time: 3 days
In short: as §1

[16] = tested on: UT-SCC-106A; experiment: as above; settings: treatment time: 3 days
In short: as §1

[17] = tested on: UT-SCC-81; experiment: as above; settings: treatment time: 3 days
In short: as §1

[18] = culture condition: embedded in Matrigel
[19] = culture condition: on top of Myogel
[20] = culture condition: plastic 2D (no matrix)
[21] = culture condition: embedded in Myogel + collagen I
[22] = culture condition: on top of Matrigel

## COc1ccc(-c2cc3c(C)nc(N)nc3n([C@H]3CC[C@H](OCCO)CC3)c2=O)cn1
[1]
  relative IC50: 1810 nM
[2]; [18]
  relative IC50: 78.9 nM
[2]; [19]
  relative IC50: 805 nM
[3]
  relative IC50: 272 nM
[4]; [19]
  relative IC50: 543 nM
[4]; [20]
  relative IC50: 741 nM
[5]; [18]
  relative IC50: 98.9 nM
[5]; [20]
  relative IC50: 193 nM
[6]; [18]
  maximal % inhibition of viability: 79.2 ± 19%
[6]; [21]
  maximal % inhibition of viability: 61.6 ± 18%
[6]; [22]
  maximal % inhibition of viability: 71.5 ± 12%
[6]; [19]
  maximal % inhibition of viability: 54.5 ± 16%
[6]; [20]
  maximal % inhibition of viability: 72.1 ± 23%
[7]; [18]
  drug sensitivity score: 10.5 ± 5.4 DSS
[7]; [21]
  drug sensitivity score: 6.7 ± 5 DSS
[7]; [22]
  drug sensitivity score: 13.8 ± 2.3 DSS
[7]; [20]
  drug sensitivity score: 11.5 ± 1.7 DSS
[8]; [18]
  drug sensitivity score: 11.4 ± 2.5 DSS
[8]; [21]
  drug sensitivity score: 4.97 ± 1.8 DSS
[8]; [22]
  drug sensitivity score: 10.9 ± 3.1 DSS
[8]; [19]
  drug sensitivity score: 10.9 ± 3.6 DSS
[8]; [20]
  drug sensitivity score: 10.4 ± 2.7 DSS
[9]; [18]
  drug sensitivity score: 5.87 ± 2.1 DSS
[9]; [21]
  drug sensitivity score: 5.73 ± 2.2 DSS
[9]; [22]
  drug sensitivity score: 7.63 ± 4.4 DSS
[9]; [19]
  drug sensitivity score: 6.6 ± 2.3 DSS
[9]; [20]
  drug sensitivity score: 7.97 ± 3.2 DSS
[10]; [18]
  drug sensitivity score: 10.5 ± 1.6 DSS
[10]; [21]
  drug sensitivity score: 4.07 ± 2.6 DSS
[10]; [22]
  drug sensitivity score: 8.07 ± 0.71 DSS
[10]; [19]
  drug sensitivity score: 4.63 ± 1.3 DSS
[10]; [20]
  drug sensitivity score: 5.7 ± 0.1 DSS
[11]; [18]
  drug sensitivity score: 16 ± 2.9 DSS
[11]; [21]
  drug sensitivity score: 12.1 ± 4.3 DSS
[11]; [22]
  drug sensitivity score: 13.9 ± 2.8 DSS
[11]; [19]
  drug sensitivity score: 12.7 ± 3 DSS
[11]; [20]
  drug sensitivity score: 12.6 ± 4.8 DSS
[12]; [18]
  drug sensitivity score: 10.2 ± 4.3 DSS
[12]; [22]
  drug sensitivity score: 1.8 ± 1.7 DSS
[12]; [19]
  drug sensitivity score: 1 ± 0.87 DSS
[12]; [20]
  drug sensitivity score: 0.967 ± 0.58 DSS
[13]; [18]
  drug sensitivity score: 15.4 ± 3.6 DSS
[13]; [21]
  drug sensitivity score: 19.8 ± 1.6 DSS
[13]; [22]
  drug sensitivity score: 16.1 ± 1.8 DSS
[13]; [19]
  drug sensitivity score: 13.9 ± 1.9 DSS
[13]; [20]
  drug sensitivity score: 16.6 ± 3.5 DSS
[14]; [18]
  drug sensitivity score: 13.4 ± 5.6 DSS
[14]; [21]
  drug sensitivity score: 11.5 ± 5.7 DSS
[14]; [22]
  drug sensitivity score: 12.1 ± 5.5 DSS
[14]; [19]
  drug sensitivity score: 8.77 ± 3.4 DSS
[14]; [20]
  drug sensitivity score: 8.4 ± 3.7 DSS
[15]; [18]
  drug sensitivity score: 14.9 ± 7.8 DSS
[15]; [21]
  drug sensitivity score: 8.67 ± 4.7 DSS
[15]; [22]
  drug sensitivity score: 12.8 ± 5.7 DSS
[15]; [19]
  drug sensitivity score: 9.9 ± 2.5 DSS
[15]; [20]
  drug sensitivity score: 9.5 ± 2 DSS
[16]; [18]
  drug sensitivity score: 17.5 ± 1.9 DSS
[16]; [21]
  drug sensitivity score: 9.13 ± 3.2 DSS
[16]; [22]
  drug sensitivity score: 15 ± 3.7 DSS
[16]; [19]
  drug sensitivity score: 8.9 ± 4.4 DSS
[16]; [20]
  drug sensitivity score: 15.3 ± 3 DSS
[17]; [18]
  drug sensitivity score: 23.6 ± 11 DSS
[17]; [21]
  drug sensitivity score: 14.2 ± 7.1 DSS
[17]; [22]
  drug sensitivity score: 15.9 ± 7.3 DSS
[17]; [19]
  drug sensitivity score: 13.6 ± 6.6 DSS
[17]; [20]
  drug sensitivity score: 14.4 ± 8.1 DSS
